We go through 16 compounds from US9598457B2, “Substituted nucleosides, nucleotides and analogs thereof” (Alios BioPharma, Inc., priority 2012, dated 2017).

Like-named read-outs stand apart in the source and are kept apart here.

For data set [1], the target named is human mitochondrial RNA polymerase (Homo sapiens, UniProt O00411). As to the kind of experiment: DdRp assay: incorporation of nucleotides by human mitochondrial RNA polymerase (HMRP). As to conditions: 100 μM of each NTP, single turnover, 30° C., 1 minute; template for GTP analogs.
For data set [2], the system named is Huh-7 cells containing the self-replicating, subgenomic HCV replicon. As to the kind of experiment: HCV replicon assay (luciferase reporter). It counts as cell-based. Particulars: Hepatitis C virus. In general terms: A replicon is a self-replicating genome or part of one, used to study replication in cells.
A further data set deals with NS5B570-Con1 (Delta-21) (Hepatitis C virus genotype 1b, UniProt Q9WMX2). As to the kind of experiment: biochemical. Also noted: species or system HCV Con-1 strain.
The subject of data set [3] is mitochondrial protein synthesis (COX I relative to SDH A) in HepG2 cells.

Chain of human mitochondrial RNA polymerase (O00411 42-1230): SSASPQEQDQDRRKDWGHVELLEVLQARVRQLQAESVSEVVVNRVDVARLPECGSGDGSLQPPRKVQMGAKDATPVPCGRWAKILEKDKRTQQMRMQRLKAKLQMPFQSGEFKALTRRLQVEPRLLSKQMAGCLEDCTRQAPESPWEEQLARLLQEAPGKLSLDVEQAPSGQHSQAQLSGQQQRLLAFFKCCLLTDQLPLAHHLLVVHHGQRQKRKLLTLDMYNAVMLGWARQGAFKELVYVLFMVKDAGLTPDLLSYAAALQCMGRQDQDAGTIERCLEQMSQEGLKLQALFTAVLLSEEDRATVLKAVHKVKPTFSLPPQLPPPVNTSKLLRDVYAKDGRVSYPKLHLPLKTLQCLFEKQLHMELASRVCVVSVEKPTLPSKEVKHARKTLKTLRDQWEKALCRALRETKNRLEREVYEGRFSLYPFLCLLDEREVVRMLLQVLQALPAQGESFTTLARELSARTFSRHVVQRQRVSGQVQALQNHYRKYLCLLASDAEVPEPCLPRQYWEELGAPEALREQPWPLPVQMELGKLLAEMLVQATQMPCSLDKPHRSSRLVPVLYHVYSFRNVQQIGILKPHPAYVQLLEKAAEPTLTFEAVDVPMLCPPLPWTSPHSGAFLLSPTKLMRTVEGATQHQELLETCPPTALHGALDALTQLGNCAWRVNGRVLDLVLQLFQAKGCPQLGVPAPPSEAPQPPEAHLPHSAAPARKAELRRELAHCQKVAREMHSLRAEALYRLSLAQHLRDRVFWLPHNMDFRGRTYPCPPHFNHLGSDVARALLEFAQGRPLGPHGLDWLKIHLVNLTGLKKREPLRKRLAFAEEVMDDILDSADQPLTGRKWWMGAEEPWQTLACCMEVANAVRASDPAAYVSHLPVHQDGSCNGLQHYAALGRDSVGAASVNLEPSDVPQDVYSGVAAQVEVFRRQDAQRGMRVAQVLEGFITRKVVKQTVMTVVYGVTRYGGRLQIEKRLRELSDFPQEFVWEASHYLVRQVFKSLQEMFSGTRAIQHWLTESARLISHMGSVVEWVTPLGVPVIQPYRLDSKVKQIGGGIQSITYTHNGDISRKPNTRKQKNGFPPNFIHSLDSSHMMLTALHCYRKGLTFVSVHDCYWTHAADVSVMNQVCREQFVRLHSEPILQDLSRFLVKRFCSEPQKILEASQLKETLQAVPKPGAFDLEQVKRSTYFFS

Consider `Nc1ncnc2c1ncn2[C@@H]1O[C@H](COP(=O)(O)OP(=O)(O)OP(=O)(O)O)[C@@H](O)[C@H]1O` [ATP], for which the “incorporation by human mitochondrial RNA polymerase (product band, FIG. 10)” value in data set [1] is “poor substrate for incorporation”.

`CCOc1nc(N)nc2c1ncn2[C@@H]1O[C@H](COP(=O)(N[C@@H](C)C(=O)OCC(C)(C)C)Oc2ccccc2Cl)[C@@H](F)[C@@]1(C)O` (stereo partly drawn) [Compound 2, (2S)-neopentyl 2-(((((2R,3R,4S,5R)-5-(2-amino-6-ethoxy-1H-purin-9(6H)-yl)-3-fluoro-4-hydroxy-4-methyltetrahydrofuran-2-yl)methoxy)(2-chlorophenoxy)phosphoryl)amino)propanoate]: the EC50 (usually the concentration needed to bring the measured effect to its halfway point) in data set [2] (Huh-7, 72 h) was < 1 µM.

On to `CCOc1nc(N)nc2c1ncn2[C@@H]1O[C@H](COP(=O)(N[C@@H](C)C(=O)OC2CCCCC2)Oc2ccc(F)c(Cl)c2)[C@@H](F)[C@@]1(C)O` (stereo partly drawn) [Compound 3, (2S)-cyclohexyl 2-(((((2R,3R,4S,5R)-5-(2-amino-6-ethoxy-1H-purin-9(6H)-yl)-3-fluoro-4-hydroxy-4-methyltetrahydrofuran-2-yl)methoxy)(3-chloro-4-fluorophenoxy)phosphoryl)amino)propanoate], for which the EC50 in data set [2] (Huh-7, 72 h) is < 1 µM.

Regarding `CCOc1nc(N)nc2c1ncn2[C@@H]1O[C@H](COP(=O)(N[C@@H](C)C(=O)OCC(C)(C)C)Oc2ccccc2)[C@@H](F)[C@@]1(C)O` (stereo partly drawn) [Compound 4, (2S)-neopentyl 2-(((((2R,3R,4S,5R)-5-(2-amino-6-ethoxy-1H-purin-9(6H)-yl)-3-fluoro-4-hydroxy-4-methyltetrahydrofuran-2-yl)methoxy)(phenoxy)phosphoryl)amino)propanoate], in data set [2] (Huh-7, 72 h), the 50% effective concentration (EC50) was < 1 µM.

On to `CCOc1nc(N)nc2c1ncn2[C@@H]1O[C@H](COP(=O)(N[C@@H](C)C(=O)OC2CCCCC2)Oc2ccccc2)[C@@H](F)[C@@]1(C)O` (stereo partly drawn) [Compound 5, (2S)-cyclohexyl 2-(((((2R,3R,4S,5R)-5-(2-amino-6-ethoxy-1H-purin-9(6H)-yl)-3-fluoro-4-hydroxy-4-methyltetrahydrofuran-2-yl)methoxy)(phenoxy)phosphoryl)amino)propanoate], for which, in data set [2] (Huh-7, 72 h), the EC50 was < 1 µM.

On to `C[C@@]1(O)[C@H](F)[C@@H](CO)O[C@H]1n1cnc2c(=O)[nH]c(N)nc21` [Compound 6, 2-amino-9-((2R,3S,4R,5R)-4-fluoro-3-hydroxy-5-(hydroxymethyl)-3-methyltetrahydrofuran-2-yl)-1H-purin-6(9H)-one], for which the EC50 in data set [2] (Huh-7, HCV replicon cells, 72 h, Bright-Glo luciferase, read-out: EC50) was 10 to 100 µM.

The compound `C[C@H](NP(=O)(OC[C@H]1O[C@@H](n2cnc3c(=O)[nH]c(N)nc32)[C@](C)(O)[C@@H]1F)Oc1ccccc1Cl)C(=O)OCC(C)(C)C` (stereo partly drawn) [Compound 7, (2S)-neopentyl 2-(((((2R,3R,4S,5R)-5-(2-amino-6-oxo-1H-purin-9(6H)-yl)-3-fluoro-4-hydroxy-4-methyltetrahydrofuran-2-yl)methoxy)(2-chlorophenoxy)phosphoryl)amino)propanoate] came in with an EC50 in data set [2] (Huh-7, 72 h) of 10 to 100 µM.

`C[C@H](NP(=O)(OC[C@H]1O[C@@H](n2cnc3c(=O)[nH]c(N)nc32)[C@](C)(O)[C@@H]1F)Oc1ccc(F)c(Cl)c1)C(=O)OC1CCCCC1` (stereo partly drawn) [Compound 8, (2S)-cyclohexyl 2-(((((2R,3R,4S,5R)-5-(2-amino-6-oxo-1H-purin-9(6H)-yl)-3-fluoro-4-hydroxy-4-methyltetrahydrofuran-2-yl)methoxy)(3-chloro-4-fluorophenoxy)phosphoryl)amino)propanoate]: the EC50 in data set [2] (Huh-7, 72 h) is 10 to 100 µM.

As to `C[C@H](NP(=O)(OC[C@H]1O[C@@H](n2cnc3c(=O)[nH]c(N)nc32)[C@](C)(O)[C@@H]1F)Oc1ccccc1)C(=O)OC1CCCCC1` (stereo partly drawn) [Compound 9, (2S)-cyclohexyl 2-(((((2R,3R,4S,5R)-5-(2-amino-6-oxo-1H-purin-9(6H)-yl)-3-fluoro-4-hydroxy-4-methyltetrahydrofuran-2-yl)methoxy)(phenoxy)phosphoryl)amino)propanoate], the EC50 in data set [2] (Huh-7, 72 h) lay within 1 to 10 µM.

For `CCOc1nc(N)nc2c1ncn2[C@@H]1O[C@H](COP(=O)(N[C@@H](C)C(=O)OC(C)C)Oc2ccccc2)[C@@H](F)[C@@]1(C)O` (stereo partly shown) [Compound 10], the EC50 in data set [2] (Huh-7, 72 h) is < 1 µM.

On to `CCOc1nc(N)nc2c1ncn2[C@@H]1O[C@H](COP(=S)(N[C@@H](C)C(=O)OC(C)C)Oc2ccccc2)[C@@H](F)[C@@]1(C)O` (stereo partly shown) [Compound 11], for which the EC50 in data set [2] (Huh-7, 72 h) was in the range of 10 to 100 µM.

In data set [2] (Huh-7, 72 h), `CCOc1nc(N)nc2c1ncn2[C@@H]1O[C@H](COP(=S)(N[C@@H](C)C(=O)OC2CCCCC2)Oc2ccccc2)[C@@H](F)[C@@]1(C)O` (stereo partly shown) [Compound 12] came in with an EC50 of 1 to 10 µM.

In data set [2] (Huh-7, 72 h), `CCOc1nc(N)nc2c1ncn2[C@@H]1O[C@H](COP(=S)(N[C@@H](C)C(=O)OCC(C)(C)C)Oc2ccccc2)[C@@H](F)[C@@]1(C)O` (stereo partly shown) [Compound 13] came in with an EC50 of 1 to 10 µM.

Regarding `C[C@@]1(O)[C@H](F)[C@@H](COP(=O)(O)OP(=O)(O)OP(=O)(O)O)O[C@H]1n1cnc2c(=O)[nH]c(N)nc21` [Compound 15], at NS5B570-Con1 (Delta-21), the IC50 (usually the midpoint of a concentration-inhibition curve) is < 1 µM.

As for `Cc1cn([C@H]2C=C[C@@H](CO)O2)c(=O)[nH]c1=O` [d4T], the “inhibition of mitochondrial protein synthesis (FIGS. 11A-B)” value in data set [3] is given as “found not to inhibit mitochondrial protein synthesis”.

For the compound `Nc1ccn([C@H]2CC[C@@H](CO)O2)c(=O)n1` [ddC], the “inhibition of mitochondrial protein synthesis (FIGS. 11A-B)” value in data set [3] is “strongly inhibit mitochondrial protein synthesis”.
